“Also recorded” adds a separate entry of the source.
What was measured:
[1] = tested on: Parkinson's patients with L-DOPA induced dyskinesias; test: Rush Dyskinesia Rating Scale AUC after a levodopa challenge dose; type: in vivo, human; conditions: 5 mg dose
Description: This example describes a multicenter, randomized, double-blind, placebo-controlled, dose finding study of oral eltoprazine in Parkinson's patients with L-DOPA induced dyskinesias, in a levodopa challenge-dose setting in Parkinson's Disease. A total of 22 patients participated in the study, out of which 18 patients fulfilled the protocol in terms of eligibility, interventions, and outcome assessment. […]
During each of five visits, and after a two-hour fast, each patient received a challenge dosage (150%—up to a maximum of 250 mg) of levodopa. […] The patients were periodically recorded for 180 minutes after treatment, and the videos were evaluated in a blinded manner.
The term “Rush Dyskinesia Rating Scale” and “Rush DRS” refer to an observer-based rating scale based on fixed movements. The numerical parts of the Rush DRS are recorded separately from the descriptive parts, as described by Goetz et al., in Movement Disorders, Vol. 9, No. 4, 1994, 390-394.
(§1) Filming occurred 30 minutes prior to, and every 30 minutes up to 180 minutes after a challenge test of L-DOPA and study medication. […] Videotaped records of each sequence were assessed by separate individual qualified raters at both of the two clinical centers. […]

5-HT1a/5-HT1b receptor = conditions: cited from earlier work
dopamine receptors = conditions: cited from earlier work
[2] = tested on: Parkinson's patients with L-DOPA induced dyskinesias; test: Safety and tolerability in the dose finding study; type: in vivo, human; conditions: single oral doses 2.5, 5, 7.5 mg in PD patients
Description: This study also assessed the safety and tolerability of eltoprazine in adults with Parkinson's Disease using the following measures: a) population mean values for the change in dyskinesia ratings between the placebo and screening baseline values and any of the eltoprazine dosages used, calculated as the peak-effect on CDRS of any study medication; b) population mean values for the change in dyskinesia ratings between the placebo and screening baseline values and any of the eltoprazine dosages used, calculated as the AuC on Rush DRS of any study medication; c) any changes in the UPDRS-III total score; d) any change in the diary data set, between the baseline and placebo and any of the three study medication tests; e) any deterioration of the HADS scores after study medication compared with placebo; f) any development of depression over the course of the study period, determined by the Montgomery Asberg Depression Rating Scale (MADRS) and clinical judgment; g) comparison between the effects on Rush Dyskinesia Rating Scale (DRS) and Clinical Dyskinesia Rating Scale (CDRS) Area under the Curve (AuC) and peak of dose effects for the three study medication dosages.
After screening, each patient participated in the study for approximately 6-10 weeks. The duration of the study was about 30 weeks. […]

[3] = Daytime plasma concentration of eltoprazine under dosing regimens
[4] = tested on: Parkinson's patients with L-DOPA induced dyskinesias; test: UPDRS-III rating of parkinsonian symptoms (levodopa efficacy) after a levodopa challenge dose; type: in vivo, human; conditions: 5 mg and 7.5 mg doses
Description: (§2) This example describes a multicenter, randomized, double-blind, placebo-controlled, dose finding study of oral eltoprazine in Parkinson's patients with L-DOPA induced dyskinesias, in a levodopa challenge-dose setting in Parkinson's Disease. A total of 22 patients participated in the study, out of which 18 patients fulfilled the protocol in terms of eligibility, interventions, and outcome assessment.
(§3) During each of five visits, and after a two-hour fast, each patient received a challenge dosage (150%—up to a maximum of 250 mg) of levodopa. […] The patients were periodically recorded for 180 minutes after treatment, and the videos were evaluated in a blinded manner. […]
Filming occurred 30 minutes prior to, and every 30 minutes up to 180 minutes after a challenge test of L-DOPA and study medication. […] Videotaped records of each sequence were assessed by separate individual qualified raters at both of the two clinical centers.
Analyses were done on both the intention-to-treat (ITT) and per protocol (PP) population, if applicable. The change between test sessions of the highest observed Unified Parkinson's Disease Rating Scale-III (UPDRS) within each session will be calculated between the randomized placebo test session and each active test session and will be analyzed with Wilcoxon Signed Rank test on the ITT population.

[5] = tested on: Parkinson's patients with L-DOPA induced dyskinesias; test: Clinical Dyskinesia Rating Scale (CDRS) rating of L-DOPA induced dyskinesia after a levodopa challenge dose; type: in vivo, human
Description: as §2
During the first visit, patients underwent screening for inclusion/exclusion criteria and safety assessments. Symptoms of parkinsonism, depression, and anxiety were assessed, and screening for significant L-DOPA dyskinesias were conducted using a challenge dose (150%) of L-DOPA. Subjects who were taking a prohibited medication were required to complete a washout period of appropriate length, as determined by the investigator. […]
as §3, §1

5-HT1d receptor = conditions: Sijbesma 1990; cited from earlier work

c1cc2c(c(N3CCNCC3)c1)OCCO2 [eltoprazine, 1-(2,3-dihydro-1,4-benzodioxin-5-yl) piperazine]
reduction of LID measured by the Rush Scale AUC [1]: reduced LID in PD patients statistically significantly | affinity for 5-HT1a versus 5-HT1b receptors, mixed agonist (5-HT1a/5-HT1b receptor; Schipper 1990): roughly equipotent affinity | receptor selectivity of binding profile (5-HT1a/5-HT1b receptor; with respect to all receptors other than 5-HT1, Sijbesma 1990): selective 5-HT1 ligand | affinity for dopamine receptors (dopamine receptors): no relevant affinity | serious adverse events [2]: no serious adverse events | tolerability [2]: well tolerated | daytime plasma concentration profile (FIG. 4) ([3]; 5 mg and 7.5 mg b.d. at 4 hour intervals (2.5, 5, 7.5, 10 mg compared)): optimizes daytime plasma concentration from 10 AM to 8 PM | daytime plasma concentration profile (FIG. 3) ([3]; 7.5 mg twice daily at 4 or 6 hourly intervals (4, 6, 8, 12 h compared)): optimizes daytime plasma concentration from 10 AM to 8 PM | plasma concentration of drug ([3]; dose of 5 mg): approximately 10 ng/ml | plasma concentration of drug ([3]; dose of 7.5 mg): approximately 17 ng/ml | plasma concentration profile (FIG. 5) ([3]; three times daily 2.5, 5, 7.5 mg at 4 hour intervals): achieve maximal plasma concentrations in the late afternoon/evening period into the night time | effect on L-DOPA efficacy measured by the UPDRS score (UPDRS-III) [4]: did not affect L-DOPA efficacy; also recorded: no significant change | reduction of LID measured by the CDRS scale, compared to placebo ([5]; 5 mg single oral dose with 150% L-DOPA challenge, p=0.0007): statistically significantly reduced LID | reduction of LID measured by the CDRS scale, compared to placebo ([5]; 7.5 mg single oral dose with 150% L-DOPA challenge, p=0.0467): statistically significantly reduced LID | affinity for the 5-HT1d receptor compared with serotonin (5-HT1d receptor): lower affinity

From patent US20180263975A1, “Methods Of Treating Motor And Movement Disorders And Side Effects Thereof Associated with Parkinson's Disease Treatments” (AMARANTUS BIOSCIENCE HOLDINGS, INC., priority 2015, published 2018)
